# From US9079859B2, “Synthetic lethal targeting of glucose transport” (AUCKLAND UNISERVICES LIMITED, priority 2011, dated 2015)
# Like-named read-outs stand apart in the source and are kept apart here.
# Experiments:
# RCC4 and RCC4/VHL cells = assay type: cell-based
# Procedure: Cell Viability Assays. For 2,3-bis[2-methoxy-4-nitro-5-sulfophenyl]-2H-tetrazolium-5-carboxanilide (XTT) assays, five thousand cells were plated in 96-well plates. The next day, vehicle (DMSO) or drug was added by serial dilution. Four days later, media were aspirated, XTT solution (0.3 mg/ml of XTT (Sigma), […] N-methyl dibenxopyrazine methyl sulfate (Sigma) in phenol red-free media) was added, and the plates were incubated at 37° C. for 1-2 hours. Metabolism of XTT was quantified by measuring the absorbance at 450 nm. IC50s were calculated using linear interpolation. For clonogenic survival assays, three hundred cells were plated per 60 mm tissue culture dish. The cells were allowed to attach overnight and then treated with vehicle or drug for 14 days. Colonies were fixed and stained with crystal violet (0.1% crystal violet in 95% ethanol). All conditions were measured in triplicate and each experiment was done in duplicate or triplicate. To determine necrosis, cells were treated with drug for a given time point. Media and cells were collected, centrifugated, and resuspended in 0.4% trypan blue (Invitrogen). Live and dead cells were counted on a hematocytometer.
# 786-O xenograft tumors = test: FDG-PET imaging of glucose uptake in renal carcinoma xenograft; assay type: in vivo, mice; conditions: three daily doses (STF-35 11.6 mg/kg i.p.)
# Procedure: In Vivo Studies. All experiments were approved by Stanford's Administrative Panel on Laboratory Animal Care (APLAC) and in accordance with both institutional and national guidelines. Five million cells were implanted subcutaneously into the flanks of nude mice (4-6 weeks old)(Charles River Laboratories). Tumors were measured with calipers. Volume was calculated by the following formula: width^2×0.5 length. Once tumors reached an average size of >20 mm^3, mice were randomized into vehicle (DMSO diluted in 16% cremaphor EL/PBS) or treated groups. Mice were treated with STF-35 (11.6 mg/kg for the first 3 days, followed by 7.8 mg/kg for the 7-9 days). Five-micron sections were cut for immunohistochemistry. Sections were counterstained with hematoxylin and eosin. For 2-[^18F]-fluoro-2-deoxy-glucose-positron emission tomography imaging, mice bearing tumors were fasted overnight. The next day, the mice were anesthetized with 2% isoflurane and injected intraperitoneally with 250 μCi of FDG. Mice were imaged for 10 minutes at one hour post-injection, using a Rodent R4 microPET system (Concorde Microsystems). Data were reconstructed into three-dimensional volumes using an ordered subset expectation maximization algorithm and were calibrated into units of percent injected dose per gram.
# RCC4 cells = test: Glucose uptake (2-deoxy-D-[3H]glucose), RCC4; assay type: cell-based
# Procedure: Glucose Uptake. One hundred thousand cells were plated per well in a six-well plate. The next day, cells were treated with the indicated concentration of drug and incubated for the indicated time. Cells were then washed twice with phosphate-buffered saline, incubated in low-glucose medium for 30 minutes, and 3H-2-deoxyglucose (0.5 μCi) was added in 1 ml of glucose-free media for an additional hour. Cells were washed twice in PBS and lysed (0.2 N NaOH and 0.2% sodium dodecyl sulfate). Glucose uptake was quantified with a scintillation counter.
# LC3 = conditions: leading to cell death; cited from earlier work
# [1] = short-term (XTT) and/or long-term (clonogenic) survival assays
smiles,measurement,setting,value
"O=CC[C@@H](O)[C@H](O)[C@H](O)CO [2-DG, 2-deoxy-D-glucose]",cytotoxicity to RCC4 and RCC4/VHL cells,RCC4 and RCC4/VHL cells,not cytotoxic
Cc1cccc(Nc2nc(-c3ccncc3)cs2)c1 [STF-62247],glucose (FDG) uptake within the tumors by FDG-PET,786-O xenograft tumors,did not have a decrease
same,"glucose uptake in VHL-defective cells, analogs and control cytotoxins",RCC4 cells,did not decrease
same,autophagy in VHL-deficient RCCs,LC3,induce autophagy
O=C(O)C(=O)CBr [bromopyruvate],cytotoxicity to RCC4 and RCC4/VHL cells,RCC4 and RCC4/VHL cells; [1],toxic to both
Clc1ccccc1C(c1ccccc1)(c1ccccc1)n1ccnc1 [clotrimazole],cytotoxicity to RCC4 and RCC4/VHL cells,RCC4 and RCC4/VHL cells,toxic to both
CC(=O)CC(=O)Nc1ccc(Cl)c(C(F)(F)F)c1 [fasentin],cytotoxicity to RCC4 and RCC4/VHL cells,RCC4 and RCC4/VHL cells; [1],relatively non-toxic
O=C(O)c1nn(Cc2ccc(Cl)cc2Cl)c2ccccc12 [lonidamine],cytotoxicity to RCC4 and RCC4/VHL cells,RCC4 and RCC4/VHL cells,toxic to both
O=C(CCc1ccc(O)cc1)c1c(O)cc(O)cc1O [phloretin],cytotoxicity to RCC4 and RCC4/VHL cells,RCC4 and RCC4/VHL cells,toxic to both
